The record followed here is patent US10654834B2 (Venenum Biodesign, LLC, priority 2016, dated 2020).

Experiment [1] deals with T1, mouse TGR5 receptor (Mus musculus, UniProt Q80SS6).
T1 construct: host or cells: HEK293-EBNA (293 c18, ATCC CRL10852)
T1 sequence (Q80SS6 1-329): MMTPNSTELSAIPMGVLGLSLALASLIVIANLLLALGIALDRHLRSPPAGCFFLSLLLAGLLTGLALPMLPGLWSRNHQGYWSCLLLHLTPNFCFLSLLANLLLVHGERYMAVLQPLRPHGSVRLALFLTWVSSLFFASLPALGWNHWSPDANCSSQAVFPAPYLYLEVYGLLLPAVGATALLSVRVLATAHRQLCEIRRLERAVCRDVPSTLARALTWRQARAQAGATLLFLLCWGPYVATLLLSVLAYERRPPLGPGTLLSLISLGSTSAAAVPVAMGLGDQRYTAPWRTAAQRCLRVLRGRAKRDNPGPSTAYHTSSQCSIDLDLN
The experiment can be described thus: Mouse TGR5 luminescent cAMP production assay (HEK293-EBNA cells, DiscoveRx cAMP XS+ kit). Type of experiment: cell-based. Conditions: HEK293-EBNA cells overexpressing mouse TGR5, luminescent cAMP assay; read-out: Mouse TGR5 Lum. cAMP Activity (EC50). An outline of the steps: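 HEK293-EBNA cells stably expressing mouse TGR5, resuspended in serum-free DMEM with 500 μM IBMX, were premixed 20 min with cAMP antibody, then exposed to half-log compound dilutions for 1 h at room temperature. cAMP was read by luminescent enzyme-fragment complementation (cAMP XS+) after overnight incubation; EC50 derived.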

Experiment [2] relates to blood glucose. The experiment can be described thus: Oral glucose tolerance test (OGTT) in C57BL/6NTac mice. Type of experiment: in vivo, mouse. On the procedure:
Oral Glucose Tolerance Test (OGTT)
Compounds of the present invention were tested to determine if they could decrease blood glucose levels in mice after glucose administration (i.e., effective in glycemic control). In this study, we orally administered a standard dose of glucose to mice and measured glucose levels in circulating blood at several defined time points after the glucose administration.
8-12 week old male C57BL/6NTac (Taconic) mice were fasted overnight. On the morning of the experiment, the mice were weighed and divided into experimental groups (n=8) assigned by randomizing mice based on baseline blood glucose levels. Following group assignments, mice were dosed with 3 mg/kg sitagliptin or PBS as vehicle control via oral gavage (5 mL/kg) exactly 1 hour before oral gavage dosing of compound (30 mg/kg) or vehicle (0.5% carboxymethylcellulose (medium viscosity)+0.25% Tween −80) at a volume of 10 mL/kg. Time zero blood glucose levels were measured 4 hours after compound or vehicle dosing. Immediately following time zero blood glucose level measurement, mice were gavaged with 2 g/kg of glucose. […] AUC were calculated and data analyzed using one-way ANOVA followed by Dunnett's post-test in GraphPad Prism (FIG. 2). […]

Experiment [3] has as its system GLP-1. The experiment can be described thus: GLP-1 measurement at end of OGTT in C57BL/6NTac mice. Type of experiment: in vivo, mouse. The following applies: for blood GLP-1 level after OGTT, combination with sitagliptin: 30 mg/kg + sitagliptin 3 mg/kg p.o. As for the experimental part:
Immediately after the last blood glucose measurement (i.e., 120 minutes after the glucose administration), the blood was collected via cardiac puncture for GLP-1 measurements. The collected blood (200-250 μL) was placed in an EDTA K^2+ tube containing 5 μL of 40 mg/mL aprotinin (Sigma A1153) and 1 μL of 10 mM sitagliptin (Sigma S8576) and plasma was separated by centrifugation. Plasma samples were stored at −20° C. until analysis. The active form of GLP-1 [GLP-1 (7-36) amide] was analyzed using Meso Scale Discovery System according to the manufacturer's directions (item number K150HYC). […] A synergy between the Compound 56 and sitagliptin is also observed (FIG. 3). Values of p<0.01 and <0.001 are considered statistically significant.
FIG. 4 depicts blood glucose measurements at 15, 30, 60, 90, and 120 min following glucose gavage. FIG. 5 depicts AUC data after glucose gavage. FIG. 6 depicts the blood GLP-1 levels comparing mice treated with a DPP-4 inhibitor (i.e., sitagliptin) to mice treated with Compound 268+a DPP-4 inhibitor (i.e., sitagliptin).

SMILES strings stand for the structures.

For `N#Cc1ccc(CCNC(=O)[C@@H]2CCCN2c2cc(N3CCC(CCO)CC3)nc(C(F)(F)F)n2)cc1` [Compound 22], the EC50 in experiment [1] is < 100 nM.
For the compound `COCC1CCN(c2cc(N3CCC[C@H]3C(=O)NCCc3ccc(C#N)cc3)nc(C(F)(F)F)n2)CC1` [Compound 24], the EC50 in experiment [1] is < 100 nM.
The same measure, in the same setting: in the case of `N#Cc1ccc(CCNC(=O)[C@@H]2CCCN2c2cc(N3CCC(CCN)CC3)nc(C(F)(F)F)n2)cc1` [Compound 50, (S)-1-(6-(4-(2-aminoethyl)piperidin-1-yl)-2-(trifluoromethyl)pyrimidin-4-yl)-N-(4-cyanophenethyl)pyrrolidine-2-carboxamide] it was < 100 nM.
For the compound `N#Cc1ccc(CCNC(=O)[C@@H]2CCCN2c2cc(N3CCC(CCC(=O)NCCS(=O)(=O)O)CC3)nc(C(F)(F)F)n2)cc1` [Compound 56, (S)-2-(3-(1-(6-(2-((4-cyanophenethyl)carbamoyl)pyrrolidin-1-yl)-2-(trifluoromethyl)pyrimidin-4-yl)piperidin-4-yl)propanamido)ethanesulfonic acid], the “blood glucose levels in OGTT” value in experiment [2] (30 mg/kg p.o. 4 h before 2 g/kg glucose, 15-120 min) is “effectively reduced blood glucose levels throughout the time period measured”. Besides, in experiment [3], the “blood GLP-1 level after OGTT, combination with sitagliptin” value is recorded as “synergy”. In experiment [3] (30 mg/kg p.o., 120 min after glucose), the “blood GLP-1 level after OGTT” value is on record as “increased GLP-1 level”.
As to `N#Cc1ccc(CCNC(=O)[C@@H]2CCN2c2cc(N3CCC(CO)CC3)nc(C(F)(F)F)n2)cc1` [Compound 219, (S)—N-(4-cyanophenethyl)-1-(6-(4-(hydroxymethyl)piperidin-1-yl)-2-(trifluoromethyl)pyrimidin-4-yl)azetidine-2-carboxamide], the EC50 in experiment [1] was < 100 nM.
Still for that read-out and setting: the same measure for `N#Cc1ccc(CCNC(=O)[C@@H]2CCN2c2cc(N3CCC(CCO)CC3)nc(C(F)(F)F)n2)cc1` [Compound 223, (S)-N-(4-cyanophenethyl)-1-(6-(4-(2-hydroxyethyl)piperidin-1-yl)-2-(trifluoromethyl)pyrimidin-4-yl)azetidine-2-carboxamide]: < 100 nM.
As to `N#Cc1ccc(CCNC(=O)[C@@H]2CCN2c2cc(N3CCC(CCNC(=O)NCCC(=O)O)CC3)nc(C(F)(F)F)n2)cc1` [Compound 268, (S)-3-(3-(2-(1-(6-(2-((4-cyanophenethyl)carbamoyl)azetidin-1-yl)-2-(trifluoromethyl)pyrimidin-4-yl)piperidin-4-yl)ethyl)ureido)propanoic acid], the “blood glucose levels in OGTT, combination with sitagliptin” value in experiment [2] (30 mg/kg + sitagliptin 3 mg/kg p.o. versus sitagliptin alone) is reported as “effectively reduced blood glucose levels throughout the time period measured”. For the same compound, in experiment [3], the “blood GLP-1 level after OGTT, combination with sitagliptin” value is given as “induced GLP-1 production”.
Consider `N#Cc1ccc(CCNC(=O)[C@@H]2CCCN(c3cc(N4CCC(CO)CC4)nc(C(F)(F)F)n3)C2)cc1` [Compound 308, (R)—N-(4-cyanophenethyl)-1-(6-(4-(hydroxymethyl)piperidin-1-yl)-2-(trifluoromethyl)pyrimidin-4-yl)piperidine-3-carboxamide], for which the concentration giving a half-maximal response (EC50) in experiment [1] is < 100 nM.

One may read the EC50 as the midpoint of the concentration-response curve.
